Results reported in paper PMC8551653, “Bisphenol A derivatives act as novel coactivator-binding inhibitors for estrogen receptor β” (The Journal of Biological Chemistry, 2021).

Columns and labels:
ERβ [1] = biological target: T1, ERβ (Homo sapiens, UniProt Q92731); experiment: Radioligand competitive binding assay with [3H]E2 for ERβ (GST-ERβ-LBD); parameters: made in house; host or cells: Escherichia coli BL21α; settings: for preference of binding ERβ over ERα: ERβ versus ERα IC50
Method: Human ERβ cDNA was obtained from OriGene Technologies. The cDNA of ERβ-LBD was amplified using PCR and subcloned into a pGEX-6p-1 expression vector. The expression of GST-fused ERβ-LBD was induced by 1 mM IPTG in Escherichia coli BL21α at 16 °C for overnight. The resulting crude protein was affinity-purified using Glutathione-Sepharose 4B (Cytiva), followed by gel filtration using a Sephadex G-10 column (Cytiva).
Target sequence in this assay (Q92731 263-530): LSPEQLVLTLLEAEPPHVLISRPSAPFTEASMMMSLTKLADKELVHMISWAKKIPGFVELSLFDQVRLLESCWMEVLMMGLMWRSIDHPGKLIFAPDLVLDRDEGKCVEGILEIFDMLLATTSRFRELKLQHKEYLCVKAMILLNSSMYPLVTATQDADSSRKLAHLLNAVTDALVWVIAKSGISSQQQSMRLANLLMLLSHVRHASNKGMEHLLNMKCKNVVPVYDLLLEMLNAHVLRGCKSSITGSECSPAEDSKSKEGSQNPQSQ

ERβ [2] = biological target: T1, ERβ; experiment: Luciferase reporter gene assay in HeLa cells, agonistic activity; format: cell-based; parameters: expressed in transfected cells; host or cells: HeLa; settings: for maximum fold induction (agonistic activity on ERβ) / ERβ agonist activity (in words): HeLa cells; for maximum fold induction (agonistic activity on ERβ): ERE luciferase reporter, tested up to 10 µM; for ERβ agonist activity (in words): WT ERβ
Method: (§1) HeLa cells were maintained in Eagle's minimum essential medium (Nissui Pharmaceutical Co, Ltd) supplemented with DCC-treated fetal bovine serum (10%, v/v) at 37 °C under 5% CO2. […] After a 24-h incubation, luciferase activity was measured using the ONE-Glo Luciferase Assay System (Promega Co) on an EnSpire multimode plate reader (PerkinElmer, Inc).
Target sequence in this assay (Q92731 whole entry, the tested form may be a part): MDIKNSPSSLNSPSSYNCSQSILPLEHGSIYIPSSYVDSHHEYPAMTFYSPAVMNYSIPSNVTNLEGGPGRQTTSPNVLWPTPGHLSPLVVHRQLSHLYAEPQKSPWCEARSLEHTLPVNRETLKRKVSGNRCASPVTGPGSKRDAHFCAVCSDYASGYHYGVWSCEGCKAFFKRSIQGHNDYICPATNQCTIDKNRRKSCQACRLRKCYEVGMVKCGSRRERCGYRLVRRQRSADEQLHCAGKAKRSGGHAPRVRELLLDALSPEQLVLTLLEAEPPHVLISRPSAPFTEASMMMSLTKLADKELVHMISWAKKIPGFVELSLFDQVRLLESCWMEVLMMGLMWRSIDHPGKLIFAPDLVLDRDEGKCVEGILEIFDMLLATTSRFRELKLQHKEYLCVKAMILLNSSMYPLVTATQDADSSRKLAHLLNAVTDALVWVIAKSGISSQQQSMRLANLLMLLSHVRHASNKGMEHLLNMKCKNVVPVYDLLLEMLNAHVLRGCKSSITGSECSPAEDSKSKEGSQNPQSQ

ERα = test system: ERα; parameters: method as in PMID 31289329; settings: competitive binding, [3H] 17β-estradiol as radioligand; mean ± SD; read-out: Binding affinity (IC50, nM) ERα; cited from earlier work
ERβ [3] = biological target: T1, ERβ; experiment: Luciferase reporter gene assay in HeLa cells, antagonistic activity against 10 nM E2; format: cell-based; parameters: expressed in transfected cells; host or cells: HeLa; settings: for transcriptional activity (%) at most effective inhibitory concentration, ratio to that of 10 nM E2: HeLa cells, in the presence of 10 nM E2, 0.1, 1, 10 µM tested; for ERβ antagonist activity (in words): against 10 nM E2-induced ERβ activation, 100 nM, 1 μM, 10 μM; for suppression of E2-induced activation: at the 10 μM concentration, 10 nM E2
Method: as §1
Target sequence in this assay (Q92731 whole entry, the tested form may be a part): as above

ERβ [4] = biological target: T1, ERβ; experiment: Competitive binding assay with [3H]4OHT for WT ERβ; parameters: made in house; host or cells: Escherichia coli BL21α
Method: (§2) After successive incubation with 100 μl of 0.4% dextran-coated charcoal (DCC) (Sigma-Aldrich) in PBS (pH 7.4) on ice for 10 min, free radioligands bound to DCC were removed using a vacuum filtration system with a 96-well filtration plate (MultiScreenHTS HV, […], Merck KGaA) for the bound/free separation. The radioactivity of each eluent was measured using a liquid scintillation counter (LS6500; Beckman Coulter) and Clear-sol I (Nacalai Tesque Inc). […] Each compound was dissolved in dimethyl sulfoxide to prepare a 1.0 mM stock solution and further diluted to prepare serial dilutions (10^−12 M to 10^−5 M) in the binding buffer. […] Bound/free separation was performed as described above, and the radioactivity was determined using a MicroBeta microplate counter (PerkinElmer Inc). The IC50 value of each test compound was calculated from the dose–response curves generated via nonlinear regression analysis using Prism software (GraphPad Software Inc).
Target sequence in this assay (Q92731 263-530): as the sequence (Q92731 263-530) above

ERβ(W335A) = ERβ(W335A) (Homo sapiens, UniProt Q92731, W335A); experiment: Competitive binding assay for ERβ(W335A); parameters: made in house; host or cells: Escherichia coli BL21α (described for the wild-type LBD); settings: for shape of competitive binding curve, ERβ(W335A): Fig. 4B
Chain of ERβ(W335A) (Q92731 263-530 W335A): as the sequence (Q92731 263-530) above, with W73A counted along it
Method: as §2

[5] = competitive binding, [3H] 17β-estradiol as radioligand, mean ± SD, read-out: Binding affinity (IC50, nM) ERβ

Row | SMILES | IC50 (ERβ [1]) | maximum fold induction (agonistic activity on ERβ) (ERβ [2]) | ERβ agonist activity (in words) (ERβ [2]) | IC50 (ERα) | transcriptional activity (%) at most effective inhibitory concentration, ratio to that of 10 nM E2 (ERβ [3]) | ERβ antagonist activity (in words) (ERβ [3]) | further results
1 | CC(C)(c1ccc(O)cc1)c1ccc(C(C)(c2ccc(O)cc2)c2ccc(O)cc2)cc1 [Compound 12, α, α, α′-Tris(4-hydroxyphenyl)-1-ethyl-4-isopropylbenzene] | 212 ± 36 nM | 1.02 | no agonist activity | 61.7 ± 10.4 nM | 7.7% | antagonistic activity | –
2 | C[C@]12CC[C@@H]3c4ccc(O)cc4CC[C@H]3[C@@H]1CC[C@@H]2O [Compound E2, Estradiol, reference compound] | – | – | – | 0.88 ± 0.13 nM | – | – | –
3 | CC(c1ccccc1)(c1ccc(O)cc1)c1ccc(O)cc1 [Compound 11, 4,4'-(1-phenylethane-1,1-diyl)diphenol] | – | – | – | 259 ± 41 nM | – | – | –
4 | Cc1cc(C2(c3ccc(O)c(C)c3)c3ccccc3-c3ccccc32)ccc1O [Compound 15, 9,9-Bis(4-hydroxy-3-methylphenyl)fluorene] | 405 ± 108 nM | – | – | – | – | weak antagonist | –
5 | CCC(C)(c1ccc(O)cc1)c1ccc(O)cc1 [Compound 8, 4,4'-(butane-2,2-diyl)diphenol] | 79.8 ± 12.6 nM | 5.13 | – | 195 ± 44 nM | 28.9% | weak antagonist activity | transcriptional activity as % of BPA-induced transcriptional activity (ERβ [2]; at the highest concentration of 10 μM): ~50%; inhibition of BPA-induced activation (ERβ [3]; as worded): 50%
6 | CC/C(=C(\c1ccc(O)cc1)c1ccc(OCCN(C)C)cc1)c1ccccc1 [Compound 4OHT, 4-Hydroxytamoxifen, reference compound] | – | – | – | […] | – | – | shape of competitive binding curve, WT ERβ (ERβ [4]; [3H]4OHT radioligand): biphasic curve
7 | Cc1cc(C(C)(C)c2ccc(C(C)(C)c3cc(C)c(O)c(C)c3)cc2)cc(C)c1O [Compound 20, α,α′-Bis(4-hydroxy-3,5-dimethylphenyl)-1,4-diisopropylbenzene] | – | 0.99 | no agonist activity | 733 ± 628 nM | 6.4% | antagonistic activity | IC50 (ERβ [1]; [5]): > 10000 nM
8 | Cc1cc(C(c2ccccc2O)c2cc(C)c(O)c(C)c2C)c(C)c(C)c1O [Compound 7, 4,4′-(2-Hydroxybenzylidene)-bis(2,3,6-trimethylphenol)] | – | 1.45 | no agonist activity | 12.3 ± 7.3 nM | 6.6% | – | IC50 (ERβ [1]; [5]): 41.5 ± 2 nM; suppression of E2-induced activation (ERβ [3]): 90%
9 | Oc1ccc(C(c2ccc(O)cc2)(C(F)(F)F)C(F)(F)F)cc1 [Compound 4, 4,4'-(perfluoropropane-2,2-diyl)diphenol] | – | – | weak transcriptional activity | – | – | antagonistic activities | preference of binding ERβ over ERα (ERβ [1]): three times stronger binding to ERβ than ERα; shape of competitive binding curve, ERβ(W335A) (ERβ(W335A)): biphasic binding of BPC and BPAF was lost; shape of competitive binding curve, WT ERβ (ERβ [4]; [3H]4OHT radioligand): biphasic binding curve; increase of ERβ binding compared with BPA (ERβ [4]; compared with BPA): ~50 fold
10 | CC(C)(c1ccc(O)cc1)c1cccc(C(C)(C)c2ccc(O)cc2)c1 [Compound 10, 4,4'-(1,3-phenylenebis(propane-2,2-diyl))diphenol] | 148 ± 80 nM | 1.12 | no agonist activity | 56.8 ± 11.7 nM | 5.4% | antagonistic activity | –
11 | Oc1ccc(C(c2ccc(O)cc2)C(Cl)(Cl)Cl)cc1 [Compound 3, 2,2-bis(p-hydroxyphenyl)-1,1,1-trichloroethane] | – | – | – | – | – | antagonistic activities | preference of binding ERβ over ERα (ERβ [1]): three times stronger binding to ERβ than ERα
12 | Cc1cc(C2(c3ccc(O)c(C)c3)CCCCC2)ccc1O [Compound 9, 1,1-Bis(4-hydroxy-3-methylphenyl)cyclohexane] | – | 2.27 | – | 38.6 ± 7.2 nM | 17.0% | – | IC50 (ERβ [1]; [5]): 132 ± 6.5 nM
13 | Oc1ccc(C(=C(Cl)Cl)c2ccc(O)cc2)cc1 [Compound 1, 4,4'-(2,2-dichloroethene-1,1-diyl)diphenol] | 2.99 ± 1 nM | 2.39 | weak transcriptional activity | 2.81 ± 0.61 nM | 6.0% | strongest antagonistic activity | IC50 (ERβ(W335A)): 691 ± 29 nM; shape of competitive binding curve, ERβ(W335A) (ERβ(W335A)): biphasic binding of BPC and BPAF was lost; IC50 (ERβ [4]): 18.1 nM; shape of competitive binding curve, WT ERβ (ERβ [4]; [3H]4OHT radioligand): biphasic dose–response curve; IC50 (ERβ [4]; read-out: IC50, biphasic curve, low-affinity site, [3H]4OHT radioligand, WT ERβ): 2280 nM
14 | Nc1ccc(Oc2ccc(C(c3ccc(Oc4ccc(N)cc4)cc3)(C(F)(F)F)C(F)(F)F)cc2)cc1 [Compound 17, 2,2-Bis[4-(4-aminophenoxy)phenyl]hexafluoropropane] | 609 ± 81 nM | 1.46 | – | 1030 ± 375 nM | 99.1% | – | –
15 | Oc1ccc(C2(c3ccc(O)cc3)CCCCC2)cc1 [Compound 5, 4,4'-(cyclohexane-1,1-diyl)diphenol] | 21.6 ± 1.9 nM | 3.29 | – | – | 19.9% | – | –
16 | Oc1ccc(C2(c3ccc(O)cc3)c3ccccc3-c3ccccc32)cc1 [Compound 14, 9,9-Bis(4-hydroxyphenyl)fluorene] | 325 ± 60 nM | 2.47 | – | 2230 ± 202 nM | 76.9% | – | –
17 | Nc1cc(C(c2ccc(O)c(N)c2)(C(F)(F)F)C(F)(F)F)ccc1O [Compound 13, 2,2-Bis(3-amino-4-hydroxyphenyl)hexafluoropropane] | – | 1.67 | – | 334 ± 112 nM | 86.7% | – | IC50 (ERβ [1]; [5]): 224 ± 113 nM
18 | CCCCC(CC)C(c1ccc(O)cc1)c1ccc(O)cc1 (stereo not drawn) [Compound 6, 4,4′-(2-Ethylhexylidene)bisphenol] | – | 1.59 | no agonist activity | 18.5 ± 6.7 nM | 11.1% | – | IC50 (ERβ [1]; [5]): 25.9 ± 8.5 nM; suppression of E2-induced activation (ERβ [3]): 90%
19 | CC(C)(c1ccc(O)cc1)c1ccc(C(C)(C)c2ccc(O)cc2)cc1 [Compound 16, 4,4'-(1,4-phenylenebis(propane-2,2-diyl))diphenol] | 607 ± 28 nM | 1.44 | no agonist activity | 176 ± 35 nM | 11.8% | antagonistic activity | –
